Test results reported in patent publication US20080274121A1, “Inhibition of Angiogenesis by Mithramycin” (priority 2007, published 2008).

Assays:
[1] = test system: Sp1, VEGF, EGFR, PDGFA, CD31 (MVD); assay: Gene expression and MVD in H727 tumor tissues; assay type: in vivo, nude mice
Method: FIG. 20. Upregulation of Sp1 and VEGF expression by treatment with BVZ and its reversal by treatment with MIT. The tumor tissues described in FIG. 4 were collected and processed as described in Materials and Methods. A. Frozen sections made from the tumors were used CD31 staining and MVD assessment. Representative photos of the stains are shown. B. Total protein lysates were harvested from tumor tissues, and the expression levels of Sp1, VEGF, EGFR and PDGFA protein were determined using Western blot analyses. Equal protein-sample loading was monitored by probing the same membrane filter with an anti-GAPDH antibody. C. The expression levels of Sp1, VEGF, EGFR and PDGFA were further determined by calculating the ratios between those genes and GAPDH.
Western blot analysis. Whole-cell lysates were prepared from human LGNET cell lines and tissues (21). Standard Western blotting was performed using polyclonal rabbit antibodies against human and mouse Sp1, VEGF, EGFR and PDGFA (Santa Cruz Biotechnology, Santa Cruz, Calif.) and the anti-rabbit IgG antibody, a horseradish peroxidase-linked F(ab′)2 fragment obtained from a donkey (Amersham, Arlington Heights, Ill.). Equal protein-sample loading was monitored by probing the same membrane filter with an antibody against glyceraldehyde-3-phosphate dehydrogenase (GAPDH) (21). The probe proteins were detected using the Amersham enhanced chemiluminescence system according to the manufacturer's instructions.
Immunohistochemical analysis and quantification of tumor MVD. For CD31 staining, frozen tissue sections (5 μm thick) were fixed in acetone. Endogenous peroxidase in the specimens was blocked using 3% hydrogen peroxide in phosphate-buffered saline (PBS) for 12 minutes. […] For quantification of tumor MVD, vessels on each section were counted in five high-power fields (magnification, ×200 [×20 objective and ×10 ocular]) as described previously (40). […]

BON-1 cells = assay: BON-1 carcinoid subcutaneous xenograft
Method: H727 and BON-1 cells were injected into the subcutis of nude mice (n=5). When tumors reached around 4 mm in diameter, the animals received different doses of MIT (0.10 [M-10], 0.20 [M-20], and 0.40 [M-40] mg/kg) via intraperitoneal injection twice a week. Tumors were measured once every week, and at each measurement, the mean±standard deviation (SD) tumor volume in the five mice in each group was calculated (A).
H727 and BON-1 cells were injected subcutaneously into nude mice. […] A. Tumors were measured once every week, and at each measurement, the mean±SD tumor volume in the five mice in each group was calculated. B. Mouse body weights were measured. The asterisks indicate the statistical significance (P<0.01) in a comparison between the treated and respective control groups.
Mithramycin-A (MIT, 1 mg/vial crystal powder; lot 055K4011) was purchased from Sigma Chemical Co. (St. Louis, Mo.) and diluted in sterile water. BVZ (25 mg/ml; NDC 50242-060-01) from Genentech, Inc. (South San Francisco, Calif.) was purchased. For animal experiments, MIT (0.1 to 0.4 mg/kg body weight) and BVZ (25 to 100 μg/mouse) were administered by intraperitoneal or subcutaneous injections twice a week or as otherwise stated.
Female athymic BALB/c nude mice were purchased from The Jackson Laboratory (Bar Harbor, Me.). The mice were housed in laminar flow cabinets under specific pathogen-free conditions and used when they were 8 weeks old.
H727 and BON-1 tumor cells were injected into the subcutis of mice as described in the Materials and Methods. […] Moreover, the residual tumors were harvested and angiogenesis was assessed by CD31 staining.
Synergistic antitumor effects of BVZ and MIT in human LGNET model. […] To test this hypothesis, we determined whether modulating Sp1 expression and/or activity impacts the efficacy of anti-angiogenic treatment of BVZ. […]
H727 and BON-1 cells were injected subcutaneously into nude mice and then administered treatment to them as described in FIG. 20. We monitored animal survival daily until termination of the experiment 160 days after tumor-cell injection.

For bevacizumab [BVZ], the “expression of PDGFA, VEGF, and EGFR in H727 tumor tissue” value ([1]; combination study (FIGS. 20B and 20C), Western blot) was “upregulated the expression of other proangiogenic molecules”, the “Sp1 expression in H727 tumor tissue” value ([1]; combination study: PBS, BVZ, MIT, or B+M (FIG. 20)) was “increased expression of Sp1” and the MVD ([1]; combination study: low-dose BVZ or MIT alone (FIG. 20)) was “did not significantly reduce MVD”. The “antitumor activity at low dose” value (BON-1 cells; BVZ 25 μg, MIT 0.10 mg/kg, alone or combined, i.p. twice a week) was “marginal antitumor activity”, the body weight (BON-1 cells; BVZ alone) was “no discernable effects on body weight” and the animal survival (BON-1 cells; compared with PBS, 160 days) was “slightly increased survival rate”.
